Measurements: patent US5677341A, “Emulsion suitable for administering a sphingolipid” (priority 1996, dated 1997)

Tests used:
[1] = primary amine group of sphingosine; cited from earlier work
[2] = acute toxicity on administration in the emulsion (infusion); type: in vivo; settings: 120 mg per square meter, diluted to about 0.5 mg/ml in 5% dextrose, approximately one hour co-infusion with cisplatin or doxorubicin
Protocol: (§1) The presently recommended dose of safingol, administered in the formulation described by the present invention, is 120 mg per square meter body surface or about 200 mg for a typical adult patient. A sterile emulsion is first diluted to a convenient drug concentration (typically about 0.5 mg/ml) using 5% dextrose for injection. A standard chemotherapeutic agent, such as cisplatin or doxorubicin, is co-infused with safingol over approximately a one hour time period. This therapy may be safety repeated every 14 to 21 days. […] Such toxicity may include intravascular hemolysis and lung embolism.

[3] = acute toxicity in animals when administered in organic solvents or in aqueous vehicles; type: in vivo; settings: similar doses, may include intravascular hemolysis and lung embolism
Protocol: as §1

[4] = tested on: protein kinase C; settings: in vitro and in vivo; cited from earlier work

Structure (SMILES) | pKa [1] | acute toxicity, administered in the emulsion of the invention [2] | acute toxicity, in organic solvents or in aqueous vehicles [3] | inhibition of protein kinase C [4]
CCCCCCCCCCCCC/C=C/[C@@H](O)[C@@H](N)CO [Sphingosine, 4-sphingenine] | ~ 6.5 | – | – | –
CCCCCCCCCCCCCCC[C@H](O)[C@@H](N)CO [safingol, (2S,3S)-2-amino-1,3-octadecanediol] | – | no acute toxicity | unacceptable acute toxicity is observed | potent inhibitors of protein kinase C, both in vitro and in vivo
